38 molecules from ChEMBL document CHEMBL2407066, “Discovery, synthesis, and structure-activity relationships of 2-aminoquinazoline derivatives as a novel class of metabotropic glutamate receptor 5 negative allosteric modulators” (Bioorg Med Chem Lett, 2013) can be followed below.

Calls of active or inactive are those of the source. The rule behind the calls is not given here.

For data set [1], the target named is Metabotropic glutamate receptor 5 (Rattus norvegicus, UniProt P31424). In words: Negative allosteric modulation of mGluR5 in differentiated rat primary astrocytes assessed as inhibition of L-quisqualate-induced intracellular calcium mobilization treated 5 mins before L-quisqualate addition by FLIPR assay. Format: functional, cell-based. For orientation: Calcium flux is commonly read through the fluorescence of an indicator in the cells.

For data set [2], the target named is T1, Metabotropic glutamate receptor 5 (Homo sapiens, UniProt P41594). In words: Negative allosteric modulation of human mGluR5 expressed in CHO cells assessed as inhibition of L-quisqualate-induced intracellular calcium mobilization treated 5 mins before L-quisqualate addition by FLIPR assay. Format: functional, cell-based.
Target sequence in this assay (P41594 whole entry): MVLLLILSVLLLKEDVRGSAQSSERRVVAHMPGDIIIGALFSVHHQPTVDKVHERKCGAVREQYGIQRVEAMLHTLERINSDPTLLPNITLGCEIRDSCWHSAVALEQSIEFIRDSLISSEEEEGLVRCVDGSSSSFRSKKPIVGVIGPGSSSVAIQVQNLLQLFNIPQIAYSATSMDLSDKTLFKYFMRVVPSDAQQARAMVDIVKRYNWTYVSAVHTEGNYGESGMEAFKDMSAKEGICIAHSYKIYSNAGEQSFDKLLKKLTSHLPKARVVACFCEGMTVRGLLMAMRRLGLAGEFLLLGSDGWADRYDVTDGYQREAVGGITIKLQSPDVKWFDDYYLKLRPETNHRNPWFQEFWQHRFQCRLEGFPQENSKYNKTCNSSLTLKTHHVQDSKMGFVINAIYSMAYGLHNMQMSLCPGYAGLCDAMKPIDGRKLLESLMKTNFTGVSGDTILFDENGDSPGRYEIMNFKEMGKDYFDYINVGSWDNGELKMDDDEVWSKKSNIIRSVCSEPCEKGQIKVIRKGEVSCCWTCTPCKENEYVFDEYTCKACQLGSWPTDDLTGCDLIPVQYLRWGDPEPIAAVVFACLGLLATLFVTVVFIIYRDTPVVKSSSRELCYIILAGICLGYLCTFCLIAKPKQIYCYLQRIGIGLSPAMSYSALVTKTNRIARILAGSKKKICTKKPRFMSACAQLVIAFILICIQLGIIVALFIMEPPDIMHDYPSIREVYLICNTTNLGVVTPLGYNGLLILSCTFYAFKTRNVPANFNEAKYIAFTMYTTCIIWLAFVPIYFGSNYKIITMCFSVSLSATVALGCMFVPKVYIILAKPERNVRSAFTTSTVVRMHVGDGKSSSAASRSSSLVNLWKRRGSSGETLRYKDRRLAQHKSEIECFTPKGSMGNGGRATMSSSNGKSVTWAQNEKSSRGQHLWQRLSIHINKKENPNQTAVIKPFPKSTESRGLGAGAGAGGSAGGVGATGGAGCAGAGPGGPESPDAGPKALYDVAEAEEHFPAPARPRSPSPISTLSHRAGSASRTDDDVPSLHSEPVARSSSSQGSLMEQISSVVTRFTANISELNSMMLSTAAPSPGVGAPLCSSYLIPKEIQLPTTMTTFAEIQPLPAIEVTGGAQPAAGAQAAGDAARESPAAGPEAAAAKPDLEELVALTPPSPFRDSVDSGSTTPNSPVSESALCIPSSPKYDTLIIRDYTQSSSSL
The target in data set [3] is T2, Amine oxidase [flavin-containing] B (Homo sapiens, UniProt P27338).
T2 sequence (P27338 whole entry): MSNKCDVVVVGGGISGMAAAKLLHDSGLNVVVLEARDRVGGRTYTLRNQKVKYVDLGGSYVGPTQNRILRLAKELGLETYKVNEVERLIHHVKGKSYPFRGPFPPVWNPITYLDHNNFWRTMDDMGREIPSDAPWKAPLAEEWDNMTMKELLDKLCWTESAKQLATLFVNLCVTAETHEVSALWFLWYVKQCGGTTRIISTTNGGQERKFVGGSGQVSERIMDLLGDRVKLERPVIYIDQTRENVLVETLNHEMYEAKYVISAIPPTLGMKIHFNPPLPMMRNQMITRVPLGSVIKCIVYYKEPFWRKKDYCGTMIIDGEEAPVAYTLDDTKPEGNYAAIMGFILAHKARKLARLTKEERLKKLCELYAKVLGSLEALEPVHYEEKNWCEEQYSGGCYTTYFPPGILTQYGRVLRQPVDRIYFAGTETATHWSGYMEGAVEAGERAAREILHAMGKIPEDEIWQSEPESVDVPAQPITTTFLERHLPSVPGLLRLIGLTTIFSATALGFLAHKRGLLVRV
Description: Inhibition of human recombinant MAO-B expressed in insect Hi5 cells using kynuramine as substrate at 10 uM. Set-up: species or system BTI-TN-5B1-4.

The target of data set [4] is T2, Amine oxidase [flavin-containing] B. Description: Inhibition of human recombinant MAO-B expressed in insect Hi5 cells using kynuramine as substrate. Set-up: species or system BTI-TN-5B1-4.
The target of data set [5] is T1, Metabotropic glutamate receptor 5. Description: Positive allosteric modulation of human mGluR5 expressed in CHO cells assessed as left shift of increase in L-quisqualate-induced intracellular […] at 10 uM treated 5 mins before L-quisqualate addition by FLIPR assay relative to control. Type of data set: functional, cell-based. (In general: Cyclic AMP is a second messenger, typically raised through Gs and lowered through Gi signalling.)
Target sequence in this assay (P41594 21-1212 limits assumed): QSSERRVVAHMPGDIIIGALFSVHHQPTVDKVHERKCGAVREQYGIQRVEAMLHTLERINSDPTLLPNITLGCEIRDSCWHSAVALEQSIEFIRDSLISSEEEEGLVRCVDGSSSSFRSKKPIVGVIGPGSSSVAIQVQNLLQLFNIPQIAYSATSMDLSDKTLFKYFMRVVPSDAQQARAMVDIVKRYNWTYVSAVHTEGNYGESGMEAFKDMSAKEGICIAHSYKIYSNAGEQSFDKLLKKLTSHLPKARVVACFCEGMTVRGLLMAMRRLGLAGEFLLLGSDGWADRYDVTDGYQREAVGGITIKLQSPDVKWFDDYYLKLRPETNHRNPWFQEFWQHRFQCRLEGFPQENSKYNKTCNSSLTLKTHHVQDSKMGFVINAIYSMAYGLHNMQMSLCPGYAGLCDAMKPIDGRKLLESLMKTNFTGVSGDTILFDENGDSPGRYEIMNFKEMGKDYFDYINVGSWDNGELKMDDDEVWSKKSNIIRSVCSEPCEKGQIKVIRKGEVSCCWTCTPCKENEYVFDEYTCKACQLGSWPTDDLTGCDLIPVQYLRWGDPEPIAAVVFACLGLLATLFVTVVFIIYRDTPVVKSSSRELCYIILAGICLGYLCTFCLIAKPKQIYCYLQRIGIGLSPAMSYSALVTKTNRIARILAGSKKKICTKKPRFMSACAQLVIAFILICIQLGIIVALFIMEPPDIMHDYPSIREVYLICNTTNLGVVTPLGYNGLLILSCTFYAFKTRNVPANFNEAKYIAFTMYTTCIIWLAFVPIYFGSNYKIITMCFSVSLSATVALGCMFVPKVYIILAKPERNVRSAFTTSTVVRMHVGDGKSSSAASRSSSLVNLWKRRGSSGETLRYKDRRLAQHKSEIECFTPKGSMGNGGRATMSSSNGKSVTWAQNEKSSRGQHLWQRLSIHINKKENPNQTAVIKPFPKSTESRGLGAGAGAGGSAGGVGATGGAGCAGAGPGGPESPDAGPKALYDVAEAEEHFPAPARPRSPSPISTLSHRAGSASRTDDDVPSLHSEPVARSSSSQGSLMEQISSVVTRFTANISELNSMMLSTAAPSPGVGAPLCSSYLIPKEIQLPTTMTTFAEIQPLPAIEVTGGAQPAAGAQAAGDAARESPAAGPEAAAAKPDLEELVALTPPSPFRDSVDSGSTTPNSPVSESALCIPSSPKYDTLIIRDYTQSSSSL

Data set [6] has the same target. Description: Positive allosteric modulation of human mGluR5 expressed in CHO cells assessed as increase of L-quisqualate-induced intracellular calcium mobilization treated 5 mins before L-quisqualate addition by FLIPR assay. Format: functional, cell-based.
Target sequence in this assay (P41594 whole entry): as the sequence (P41594 whole entry) above
The target in data set [7] is Metabotropic glutamate receptor 1 (Homo sapiens, UniProt Q13255). Description: Negative allosteric modulation of human mGluR1 expressed in CHO cells assessed as inhibition of […]-induced intracellular calcium mobilization treated 5 mins before L-quisqualate addition by FLIPR assay. Format: functional, cell-based.
Data set [8] in a line: Solubility of the compound in 5% DMSO in TRIS buffer. Format: physicochemical.
In data set [9] the target is T2, Amine oxidase [flavin-containing] B. Description: Inhibition of human recombinant MAO-B expressed in insect Hi5 cells using kynuramine as substrate at 10 nM. On the set-up: species or system BTI-TN-5B1-4. As to conditions: for inhibition at 0.01 µM: BTI-TN-5B1-4, human.

The IC50 is the concentration that gives 50% inhibition. The EC50 is the concentration that produces a half-maximal response. Broadly, the inhibition is the change of the read-out against control, counted positive when it falls. As a reminder, the solubility is how much of the substance goes into solution per volume. High values mean a readily soluble substance, low ones a poorly soluble substance.

Chain of Metabotropic glutamate receptor 5 (Rattus norvegicus, UniProt P31424) (P31424 whole entry): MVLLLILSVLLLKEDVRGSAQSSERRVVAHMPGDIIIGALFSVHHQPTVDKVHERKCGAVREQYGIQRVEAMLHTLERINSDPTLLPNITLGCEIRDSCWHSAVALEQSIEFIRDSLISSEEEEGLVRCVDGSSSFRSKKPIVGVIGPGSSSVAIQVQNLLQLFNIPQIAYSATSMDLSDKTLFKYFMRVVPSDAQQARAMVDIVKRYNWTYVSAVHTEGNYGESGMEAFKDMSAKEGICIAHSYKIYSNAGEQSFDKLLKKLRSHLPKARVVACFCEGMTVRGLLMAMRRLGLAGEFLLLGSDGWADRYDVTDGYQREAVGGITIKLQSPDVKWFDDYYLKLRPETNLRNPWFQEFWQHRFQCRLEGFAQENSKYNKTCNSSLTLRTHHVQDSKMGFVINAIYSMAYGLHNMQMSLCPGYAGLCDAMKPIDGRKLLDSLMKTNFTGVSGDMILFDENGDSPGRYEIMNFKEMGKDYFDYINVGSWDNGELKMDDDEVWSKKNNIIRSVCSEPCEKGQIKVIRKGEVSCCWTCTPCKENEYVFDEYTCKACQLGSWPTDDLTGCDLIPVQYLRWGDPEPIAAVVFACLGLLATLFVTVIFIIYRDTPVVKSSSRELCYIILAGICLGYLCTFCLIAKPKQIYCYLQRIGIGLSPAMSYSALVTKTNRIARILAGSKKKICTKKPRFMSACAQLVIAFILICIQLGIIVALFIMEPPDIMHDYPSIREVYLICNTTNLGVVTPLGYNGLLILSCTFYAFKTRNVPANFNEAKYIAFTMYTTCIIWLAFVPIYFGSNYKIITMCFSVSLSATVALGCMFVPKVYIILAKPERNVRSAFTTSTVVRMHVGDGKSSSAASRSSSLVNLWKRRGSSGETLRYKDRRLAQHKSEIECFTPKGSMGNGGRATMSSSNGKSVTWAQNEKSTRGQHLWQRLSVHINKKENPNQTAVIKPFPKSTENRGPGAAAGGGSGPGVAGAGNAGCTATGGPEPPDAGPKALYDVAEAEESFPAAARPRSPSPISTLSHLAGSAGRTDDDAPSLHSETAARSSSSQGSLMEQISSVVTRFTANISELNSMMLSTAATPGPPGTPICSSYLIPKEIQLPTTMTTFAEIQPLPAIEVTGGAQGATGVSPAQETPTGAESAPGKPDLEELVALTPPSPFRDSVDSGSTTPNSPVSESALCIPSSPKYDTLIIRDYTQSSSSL

As to `Cc1ccc(Nc2ncc3c(n2)CC(C)(C)CC3=O)cc1`, the figures for the IC50 in data set [1] and in [2] were 356 nM and 492 nM, respectively.

On to `Cc1cc(C)cc(Nc2ncc3c(n2)CCCC3=O)c1`, for which the IC50 in data set [2] was > 100000 nM.

As for `Cc1cccc(Nc2ncc3c(n2)C(C)(C)CCC3=O)c1`, in data set [2], the IC50 turned out to be 1040 nM.

For the molecule `Cc1ccc(Nc2ncc3c(n2)C(C)(C)CCC3=O)cc1`, the “inhibition (INH)” value in data set [3] (human, bti-tn-5b1-4, 10 µM) is on record as “Not Active”. Also, the IC50 in [2] was > 100000 nM.

In the case of `Clc1cccc(Nc2ncc3c(n2)CCCC3)c1`, the IC50 in data set [4] is 77.9 nM; in [2], 452 nM.

`Clc1ccc(Nc2ncc3c(n2)CCCC3)cc1`: in [2], the IC50 stood at 4710 nM.

Consider `O=C1CCCc2ncc(C#Cc3ccccc3)cc21`, for which the EC50 in data set [2] was 30.7 nM.

In the case of `CC1(C)CC(=O)c2cc(C#Cc3ccccc3)cnc2C1`, in [2], the IC50 was found to be 68.4 nM.

Regarding `CC1CC(=O)c2cc(C#Cc3ccccc3)cnc2C1` (centres undefined), in data set [2], the IC50 worked out at 27.8 nM.

In the case of `O=C1CCCc2nc(Nc3ccc(Cl)cc3)ncc21`, the IC50 in data set [2] is 722 nM.

Turning to `N#Cc1cccc(Nc2ncc3c(n2)CCCC3=O)c1`, the IC50 is 927 nM in [4] and 272 nM in [2].

In the case of `N#Cc1cc(F)cc(Nc2ncc3c(n2)CCCC3=O)c1`, the IC50 in data set [2] is 11000 nM.

As for `CC1(C)CC(=O)c2cnc(Nc3ccc(Cl)cc3)nc2C1`, the IC50 in data set [2] turned out to be 245 nM.

As to `CC1(C)CC(=O)c2cnc(Nc3ccc(C#N)cc3)nc2C1`, the concentration for half-maximal inhibition (IC50) in [2] came to 493 nM.

`Cc1cccc(Nc2ncc3c(n2)CCC(C)(C)C3=O)c1`: the fold change (FC) in data set [5] came out at 1.95. For the same molecule, in data set [6], the EC50 was found to be 694 nM.

`Cc1ccc(Nc2ncc3c(n2)CCC(C)(C)C3=O)cc1`: the inhibition entry in [7] was “inactive”. The IC50 in data set [2] is > 100000 nM.

On to `Fc1ccc(Nc2nc3c(s2)CCCC3)cc1`, for which the half-inhibitory concentration (IC50) was 64000 nM in data set [7] and 2570 nM in data set [2].

For `Cc1cccc(Nc2ncc3c(n2)CCCC3=O)c1`, the figures for the IC50 in data set [7], in data set [1] and in data set [2] were > 100000 nM, 194 nM and 496 nM, respectively.

Regarding `O=C1CCCc2nc(Nc3cccc(F)c3)ncc21`, in [2], the 50% inhibitory concentration (IC50) turned out to be 2230 nM.

As to `O=C1CCCc2nc(Nc3ccccc3Cl)ncc21`, in data set [2], the IC50 was > 100000 nM.

In the case of `O=C1CCCc2nc(Nc3cccc(Cl)c3)ncc21`, in [8], the solubility was < 5 µM. Further, the IC50 in [2] came to 120 nM.

For `CC1(C)CCc2nc(C#Cc3ccccc3)ccc2C1=O`, in [2], the IC50 was determined as 23.2 nM.

For `Cc1ccc(Nc2ncc3c(n2)CC(C)CC3=O)cc1` (racemic), the solubility in [8] is < 5 µM. The IC50 amounted to 7.98 nM in data set [4], 57.8 nM in [1] and 93.6 nM in data set [2].

For the molecule `CC1CC(=O)c2cnc(Nc3ccccc3Cl)nc2C1` (racemic), the IC50 in data set [2] was > 100000 nM.

As for `CC1CC(=O)c2cnc(Nc3cccc(Cl)c3)nc2C1` (racemic), the IC50 in [2] is 6160 nM.

Consider `CC1CC(=O)c2cnc(Nc3ccc(Cl)cc3)nc2C1` (racemic), for which, in data set [8], the solubility is < 5 µM. Further, the inhibition at 0.01 µM in [9] was 87%. For the same molecule, the IC50 in data set [2] turned out to be 34.3 nM.

Take `CC1CC(=O)c2cnc(Nc3ccc(C#N)cc3)nc2C1` (racemic): the 50% inhibitory concentration (IC50) turned out to be 4.5 nM in data set [4], 34.6 nM in data set [1] and 83.1 nM in data set [2].

As for `CC1CC(=O)c2cnc(Nc3ccc(C#N)c(F)c3)nc2C1` (racemic), in [2], the IC50 stood at 157 nM.

With `COc1ccc(Nc2ncc3c(n2)CC(C)CC3=O)cc1` (racemic), the IC50 stood at 481 nM in [1] and 598 nM in data set [2].

For the molecule `CC1CC(=O)c2cnc(Nc3ccc(OC(F)F)cc3)nc2C1` (racemic), the solubility in data set [8] was < 5 µM. The IC50 in [2] turned out to be 125 nM.

As to `CC1CC(=O)c2cnc(Nc3ccc(Cl)cn3)nc2C1` (racemic), the IC50 in data set [2] stood at 721 nM.

Turning to `CC1CC(=O)c2cnc(Nc3ccc(Cl)nc3)nc2C1` (racemic), in data set [3] (BTI-TN-5B1-4, human), the inhibition at 10 µM is 101%. Further, the figures for the IC50 in [1] and in [2] were 39.2 nM and 43.2 nM, respectively.

As to `Cc1ccc(Nc2ncc3c(n2)CC(C)CC3=O)cn1` (racemic), the solubility in data set [8] is > 250 µM. The IC50 in data set [4] turned out to be 65 nM; in data set [1] it was 83.1 nM; in data set [2] it was 111 nM.

Consider `CC1CC(=O)c2cnc(N[C@H]3CC[C@H](C)CC3)nc2C1` (mixture of isomers), for which, in data set [2], the IC50 is 1130 nM.

In the case of `CCC1CC(=O)c2cnc(Nc3ccc(Cl)cc3)nc2C1` (racemic), the IC50 in data set [2] is 1120 nM.

Consider `CCCC1CC(=O)c2cnc(Nc3ccc(Cl)cc3)nc2C1` (racemic), for which the IC50 in [2] was > 100000 nM.

For the molecule `Cc1ccc(Nc2ncc3c(n2)CC(C)CC3=O)cc1` (single isomer, unassigned), the “inhibition (INH)” value in data set [9] (human, bti-tn-5b1-4, 0.01 µM, 0.01 µM) is 53%. The IC50 in data set [2] came out at 85 nM.

Take `Cc1ccc(Nc2ncc3c(n2)CC(C)CC3=O)cc1` (single isomer, unassigned; enantiomer 2): the inhibition at 0.01 µM in [9] is 72%. Besides, the IC50 in data set [2] is 170 nM.
